Source: ChEMBL document CHEMBL1148558, “Optimization of CCR4 antagonists: side-chain exploration” (Bioorg Med Chem Lett, 2006)

Columns and labels:
[1] = biological target: T1, C-C chemokine receptor type 4 (Homo sapiens, UniProt P51679); assay: Displacement of [125I]TARC from human CCR4 receptor transfected in HEK293 cells; type: cell-based
T1 sequence (P51679 whole entry): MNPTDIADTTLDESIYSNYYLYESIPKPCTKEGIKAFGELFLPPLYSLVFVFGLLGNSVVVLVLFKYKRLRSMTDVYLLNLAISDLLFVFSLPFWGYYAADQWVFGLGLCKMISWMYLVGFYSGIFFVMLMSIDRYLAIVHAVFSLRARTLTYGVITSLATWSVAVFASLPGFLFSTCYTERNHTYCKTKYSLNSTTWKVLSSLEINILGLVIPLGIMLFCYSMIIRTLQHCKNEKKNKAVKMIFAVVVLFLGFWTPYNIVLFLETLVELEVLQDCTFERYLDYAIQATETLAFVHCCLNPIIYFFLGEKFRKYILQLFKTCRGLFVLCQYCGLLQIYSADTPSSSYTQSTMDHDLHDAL

L1.2 = assay: Cytotoxicity against CCR4 transfected L1.2 cells (murine pre-B cells); type: functional, cell-based; conditions: Mus musculus
[2] = biological target: T1, C-C chemokine receptor type 4; assay: Calcium mobilization mediated by CCR4 receptor in CEMS529 cells by FLIPR; type: functional, cell-based
Mus musculus = assay: In vivo efficacy against allergic lung inflammation in BABL/c mice administered sc; type: functional

Structure (SMILES)	IC50 [1] [nM]	other results
CN1CCCC(C(=O)NCCNc2nccc(OCc3ccc(Cl)cc3Cl)n2)C1 (stereo not drawn)	> 10000	–
CN1CCCC(C(=O)NCCCNc2nccc(OCc3ccc(Cl)cc3Cl)n2)C1 (stereo not drawn)	> 10000	–
Cn1cnc(CC(=O)N2CCN(c3nccc(OCc4ccc(Cl)cc4Cl)n3)CC2)c1	> 10000	–
O=C(C1CCNCC1)N1CCN(c2nccc(NCc3ccc(Cl)cc3Cl)n2)CC1	> 10000	–
O=C(Cc1cccnc1)N1CCN(c2nccc(OCc3ccc(Cl)cc3Cl)n2)CC1	> 10000	–
O=C(c1cccnc1)N1CCN(c2nccc(OCc3ccc(Cl)cc3Cl)n2)CC1	> 10000	–
O=C(C1CNC1)N1CCN(c2nccc(NCc3ccc(Cl)cc3Cl)n2)CC1	> 10000	–

The next compounds have a lower IC50 [1] than those just listed; values first:

IC50 [1] [nM]	Structure (SMILES)	other results
700	CN1CCCC(C(=O)N2CCN(c3nccc(NCc4ccc(Cl)cc4Cl)n3)CC2)C1 (stereo not drawn)	–
800	O=C(C1CCCNC1)N1CCN(c2nccc(NCc3ccc(Cl)cc3Cl)n2)CC1 (stereo not drawn)	–
60	O=C([C@H]1CCCN1)N1CCN(c2nccc(NCc3ccc(Cl)cc3Cl)n2)CC1	–
5600	CC(C)[C@@H](CNc1nccc(OCc2ccc(Cl)cc2Cl)n1)NC(=O)C1CCCN(C)C1 (stereo partly drawn)	–
1000	O=C([C@@H]1CCCCN1)N1CCN(c2nccc(NCc3ccc(Cl)cc3Cl)n2)CC1	–
300	CN1CCCC(C(=O)N2CCN(c3ccnc(NCc4ccc(Cl)cc4Cl)n3)CC2)C1 (stereo not drawn)	–
50	O=C([C@H]1CCCCN1)N1CCN(c2nccc(NCc3ccc(Cl)cc3Cl)n2)CC1	IC50 (L1.2): > 100000 nM; IC50 [2]: 10 nM; ED50 (Mus musculus): 30 mg/kg
1200	CN1CCCC(C(=O)N2CCN(c3nccc(OCc4ccc(Cl)cc4Cl)n3)CC2)C1 (stereo not drawn)	–
